The test system of assay [1] is osteoblastic cells and osteocytic cells. Kind of assay: Anti-apoptotic effects of estrogens on osteoblastic and osteocytic cells in vitro. It counts as cell-based.
In a further assay the test system is ERK1/2. Kind of assay: ERK1/2 phosphorylation in MLO-Y4 cells by Western blot. It counts as cell-based, murine. The following applies: 50 μM PD98059 or 1 μM UO126 pretreatment; 10^−7 M bisphosphonate 2 min. As for the experimental part: Monolayers were washed with cold 20 mM Tris-HCl (pH 7.5), 150 mM NaCl, 1 mM sodium orthovanadate and lysed in the lysis buffer mentioned above. Insoluble material was pelleted in a microcentrifuge at 14,000×rpm for 10 mn. […] Proteins (10 μg) were separated on 7.5% SDS-polyacrylamide gels and electrotransferred to a polyvinylidene difluoride membrane. Immunoblotting was performed using a mouse monoclonal antibody recognizing tyrosine phosphorylated ERK1/2, or a rabbit polyclonal antibody recognizing total ERK1/2, followed by incubation with either an antimouse or an antirabbit antibody conjugated with horseradish peroxidase. Blots were developed using Chemiluminescence according to the manufacturer's recommendations. Quantitation of the intensity of the bands in the autoradiograms was performed using a scanner (Microtek Lab., Redondo Beach, Calif.).

The next assay has as its system MLO-Y4 osteocytic cells. The following applies: for effect on the prevention of MLO-Y4 cell apoptosis by sCT / effect on the anti-apoptotic effect of alendronate, IG-9402 and etidronate: inhibitor 30 min, 10^−6 M dexamethasone 6 h; for effect on the prevention of MLO-Y4 cell apoptosis by sCT: 5 ng/ml sCT 1 h; for effect on the anti-apoptotic effect of alendronate, IG-9402 and etidronate: 10^−7 M bisphosphonate 1 h; for percentage of cells stained with trypan blue (induction of apoptosis): MLO-Y4, 6 h, dexamethasone 10^−6 M, etoposide 50 μg/ml, TNF-α 1 nM; for inhibition of glucocorticoid-induced apoptosis: 1 h pretreatment, then dexamethasone 10^−6 M for 6 h. As for the experimental part:
The murine long bone-derived osteocytic cell line MLO-Y4 was provided by Dr. Lynda Bonewald (University of Texas Health Center at San Antonio, Tex.). Cells were cultured in phenol red-free αMEM supplemented with 5% FBS, 5% bovine calf serum, 100 U/ml penicillin and 100 μg/ml streptomycin. Cells were plated at 1-2×10^4 cells/cm^2 on collagen type I coated plates, as described previously (Kato, et al., 1997. J. Bone Miner. Res. 12:2014-2023). Murine calvaria cells were obtained from neonatal (3- to 6-day old) C57BL/6J mice by controlled digestion with collagenase, as previously described (Bellido, et al., 1997. Endocrinology 138:3666-3676). After isolation, cells were cultured in 10% FBS at 1-2×10^4 cells/cm^2 until 90-95% confluence. Subsequently, cells were harvested and frozen for later use. UMR-106-06 cells were cultured in phenol red-free MEM supplemented with 10% FBS, 1% non-essential aminoacids, 100 U/ml penicillin, and 100 μg/ml streptomycin (Sakagami, et al., Manolagas. 1993. J. Bone Miner. Res. 8:811-816).
Nonadherent cells were combined with adherent cells released from the culture dish using trypsin-EDTA, resuspended in medium containing serum, and collected by centrifugation. […] At least 100 cells per condition were counted.
(§1) MLO-Y4 osteocytic cells and calvaria osteoblastic cells were treated for 1 hour in the absence or presence of different BPs or sCT. Subsequently, dexamethasone, etoposide or TNF-α were added to obtain final concentrations of 10^−6 M, […], or 1 nM, respectively, and cells were incubated for additional 6 h. The effect of PD98059 (50 μM) or UO126 (1 μM) was evaluated by pretreating the cells with the inhibitors for 30 min before adding the BPs or sCT. In the experiment using the membrane permeable caspase inhibitor DEVD, cells were cultured for 1 hour with 50 nM DEVD-CHO and subsequently the pro-apoptotic agents were added to reach the final concentrations indicated above. […] At least 500 cells from fields selected by systematic random sampling were examined for each experimental condition. […] The TUNEL reaction was performed according to the manufacturer's instructions, using 0.15% CuSO4 for color enhancement. Negative controls were made by omitting the transferase from the reaction. Cells presenting brown nuclear staining were considered positive. More than 500 cells per condition were analyzed. Apoptosis of parental MLO-Y4 or calvaria cells was quantified by trypan blue staining (Jilka, et al., 1998. J. Bone Miner. Res. 13:793-802). Nonadherent cells were combined with adherent cells released from the culture dish using trypsin-EDTA, resuspended in medium containing serum, and collected by centrifugation. […] At least 100 cells per condition were counted.
MLO-Y4 cells were incubated for 1 h in vehicle or 50 nM DEVD-CHO. Subsequently, etoposide, TNF-α, or dexamethasone (Dex) were added at final concentrations of 50 μg/ml, 1 nM, or 10^−6 M, respectively, and cells were incubated for additional 6 h. Dead cells were enumerated by trypan blue uptake.
The percentage of dead cells was determined by trypan blue uptake, as in Methods and Materials. Bars represent the mean ±S.D. of three independent measurements.
Subsequently, etoposide, TNF-α, or dexarnethasone were added to reach final concentrations of 50 μg/ml, 1 nM, or 10^−6 M, respectively, and cells were cultured for 6 h, as in FIG. 1. The percentage of dead cells was determined by trypan blue uptake. Bars represent the mean ±S.D. of three independent measurements. Data were analyzed by two-way ANOVA.

For another assay, the system named is osteocytic MLO-Y4 cells. The assay can be described thus: TUNEL reaction in MLO-Y4 cells. The class given is cell-based, murine. The following applies: 10^−7 M alendronate 1 h and/or 10^−6 M dexamethasone 6 h. As for the experimental part:
as §1

The subject of assay [2] is osteoblastic cells derived from murine calvaria. Kind of assay: Apoptosis of osteoblastic cells derived from murine calvaria by trypan blue uptake. It counts as cell-based. As to conditions: etoposide 50 μg/ml, TNF-α, dexamethasone 10^−6 M; 6 h.
The next assay relates to osteoclast. The following applies: cited from earlier work.
The test system of assay [3] is MLO-Y4 cells stably transduced with GFP. Kind of assay: Apoptosis by nuclear morphology of MLO-Y4 cells transduced with nuclear GFP. It counts as cell-based, murine. As to conditions: absence of dexamethasone; 10^−7 M. As for the experimental part: Supernatants containing retroviral particles were collected 24-48 h after transfection, and used immediately to infect cell cultures. […] Subsequently, cells were exposed to the supernatants containing the viral particles once more before being trypsinized and plated at low density.
Cells presenting brown nuclear staining were considered positive. More than 500 cells per condition were analyzed. […] At least 100 cells per condition were counted.

Assay [4] deals with osteocyte and osteoblast apoptosis in murine vertebral cancellous bone. The assay can be described thus: Murine model of glucocorticoid excess: TUNEL in vertebral bone sections and spinal BMD by DEXA. It counts as in vivo, Male Swiss Webster mice. The following applies: prednisolone 2.1 mg/kg/day pellets, alendronate 0.75 mg/kg/d s.c., 56 days, mean ±SD. The source says: To adjust for the difference in the metabolic rate in mice compared to that in humans, the daily glucocorticoid dose was divided by the metabolic weight, i.e. the weight in kg to the 3/4 power (Borchard, et al., 1992. Drug dosage in laboratory animals: a handbook. CRC Press, Inc., Boca Raton, Fla. 514 pp.; Kleiber, M. 1961. The fire of life: an introduction to animal energetics. New York). […] One control group received saline injections with placebo pellet implantation while another group received saline injections plus prednisolone pellets. Dual-energy X-ray absorptiometry (DEXA) was used to determine spinal bone mineral density (spinal BMD) at the end of the 56-day experiment, as previously described (Weinstein et al., 1998. J. Clin. Invest. 102:274-282).
Sections of vertebral bone (L1 to L5) were mounted on silane-coated glass slides (Scientific Device Lab, Inc., Des Plains, Ill.), deplasticized and incubated in 10 mM citrate buffer, pH 7.6, in a microwave oven at 98° C. for 5 minutes (Jilka, et al., 1998. J. Bone Miner. Res. 13:793-802). Slides were then incubated with 0.5% pepsin for 30 minutes at 37° C. Apoptotic cells were detected by the TUNEL reaction as described above using 0.15% CuSO4 for color enhancement of the diaminobenzidine in sections counterstained with 1% methyl green. The TUNEL reaction is noted within cell nuclei and the cells whose nuclei were clearly brown from the streptavidin-horse radish peroxidase conjugate instead of blue-green from the methyl green were interpreted as positive. Plastic-embledded sections of weaned rat mammary tissue were used as a positive control. Negative controls were made by omitting the transferase from the TUNEL reaction. Morphological changes characteristic of apoptosis were carefully examined to minimize ambiguity regarding the interpretation of results. […] Osteocytes were identified inside lacunae in mineralized bone (FIG. 11A). Osteoblasts were identified as cuboidal cells lining the osteoid-covered trabecular perimeter (FIG. 11B).

Marks after values point to notes of the source that are not given here. Ends that are not written are not given here.

Data on 13 molecules can be found in patent US6416737B1, “Increasing bone strength with selected bisphosphonates” (Board of Trustees of the University of Arkansas, priority 1998, dated 2002).

As for `C[C@]12CC[C@@H]3c4ccc(O)cc4CC[C@H]3[C@@H]1CC[C@H]2O` [17α-estradiol], in assay [1], the “anti-apoptotic effects on osteoblastic cells in vitro and osteocytic cells” value is on record as “potent anti-apoptotic effects”.
The same measure, in the same setting: in the case of `C[C@]12CC[C@@H]3c4ccc(O)cc4CC[C@H]3[C@@H]1CC[C@@H]2O` [17β-estradiol] it was “potent anti-apoptotic effects”.
As for `C[C@]12CC[C@@H]3c4ccc(O)cc4C[C@@H](CCCCCCCCC[S+]([O-])CCCC(F)(F)C(F)(F)F)[C@H]3[C@@H]1CC[C@@H]2O` (stereo partly drawn) [ICI 182780], the “effect on the anti-apoptotic effects of the estrogen compounds” value in assay [1] is “diminished”.
Turning to `COc1cccc(-c2cc(=O)c3ccccc3o2)c1N` [PD98059], in the assay with ERK1/2, the “effect on bisphosphonate-induced phosphorylation of ERKs” value is on record as “abolished”. Besides, in the assay on MLO-Y4 osteocytic cells, the “effect on the prevention of MLO-Y4 cell apoptosis by sCT” value is recorded as “abolished”; the “effect on the anti-apoptotic effect of alendronate, IG-9402 and etidronate” value was “abrogated the anti-apoptotic effect”.
Consider `N#CC(=C(/N)Sc1ccccc1N)/C(C#N)=C(\N)Sc1ccccc1N` [U0126], for which the “effect on bisphosphonate-induced phosphorylation of ERKs” value in the assay on ERK1/2 is “abolished”. Further, in the assay with MLO-Y4 osteocytic cells, the “effect on the prevention of MLO-Y4 cell apoptosis by sCT” value was “abolished”; the “effect on the anti-apoptotic effect of alendronate, IG-9402 and etidronate” value is “abrogated the anti-apoptotic effect”.
`C[C@@H]1C[C@H]2[C@@H]3CCC4=CC(=O)C=C[C@]4(C)[C@@]3(F)[C@@H](O)C[C@]2(C)[C@@]1(O)C(=O)CO` [dexamethasone]: in the assay on osteocytic MLO-Y4 cells, the “% of TUNEL positive cells” value is 11.87* %, the “Number of TUNEL positive cells” value worked out at 66 and the “number of TUNEL negative cells” value amounted to 490. Moreover, the “concentrations giving pro-apoptotic effects” value in the assay on MLO-Y4 osteocytic cells (MLO-Y4 cells) is 10^−7-10^−5 M.
For `C[C@@]12CCC[C@H]1[C@@H]1CCc3cc(O)ccc3[C@H]1CC2` [estratriene-3-ol], in assay [1], the “anti-apoptotic effects on osteoblastic cells in vitro and osteocytic cells” value was “potent anti-apoptotic effects”.
For `COc1cc([C@@H]2c3cc4c(cc3[C@@H](O[C@@H]3O[C@@H]5CO[C@@H](C)O[C@H]5[C@H](O)[C@H]3O)[C@H]3COC(=O)[C@H]23)OCO4)cc(OC)c1O` [etoposide], in the assay with MLO-Y4 osteocytic cells, the “percentage of cells stained with trypan blue (induction of apoptosis)” value is on record as “A similar effect was obtained”. The “induction of apoptosis of osteoblastic cells” value in assay [2] was “induced apoptosis”.
Take `CN(C)CCC(O)(P(=O)(O)O)P(=O)(O)O` [olpadronate]: the “antiresorptive activity / effect on osteoclast” value in the assay on osteoclast is “effective inhibitor of the osteoclast and of bone resorption”. The “inhibition of glucocorticoid-induced apoptosis” value in the assay on MLO-Y4 osteocytic cells is reported as “Comparable responses”. In addition, the “proportion of cells exhibiting chromatin condensation and/or nuclear fragmentation versus untreated” value in assay [3] is given as “no significant differences”.
As for `NCCC(O)(P(=O)(O)O)P(=O)(O)O` [pamidronate], in the assay on MLO-Y4 osteocytic cells, the “inhibition of glucocorticoid-induced apoptosis” value is listed as “Comparable responses”. Besides, the “proportion of cells exhibiting chromatin condensation and/or nuclear fragmentation versus untreated” value in assay [3] is recorded as “no significant differences”.
Turning to `C[C@]12C=CC(=O)C=C1CC[C@@H]1[C@@H]2[C@@H](O)C[C@@]2(C)[C@H]1CC[C@]2(O)C(=O)CO` [prednisolone], the “Spinal BMD (% change)” value in assay [4] (DEXA) is reported as −12.48 ± 3.77 % change. Moreover, in assay [4] (vertebral cancellous bone), the “Apoptotic osteoblasts (%)” value is on record as 19.79 ± 5.17 % and the “Apoptotic osteocytes (%)” value turned out to be 2.37 ± 0.87%.
On to “Asp-Glu-Val-Asp-aldehide (DEVD-aldehyde) [DEVD-CHO]”, for which, in the assay with MLO-Y4 osteocytic cells (50 nM DEVD-CHO 1 h before pro-apoptotic agents), the “prevention of the increase in cell membrane permeability detected by trypan blue” value was “prevented”.

B1: TNF-α: Recombinant murine TNF-α, an activator of death receptors (protein, UniProt P06804 80-235, looked up)
Tumor necrosis factor, …: LRSSSQNSSDKPVAHVVANHQVEEQLEWLSQRANALLANGMDLKDNQLVVPADGLYLVYSQVLFKGQGCPDYVLLTHTVSRFAISYQEKVNLLSAVKSPCPKDTPEGAELKPWYEPIYLGGVFQLEKGDQLSAEVNLPKYLDFAESGQVYFGVIAL
modifications: Tumor necrosis factor, soluble form
As for B1, the “percentage of cells stained with trypan blue (induction of apoptosis)” value in the assay with MLO-Y4 osteocytic cells is reported as “A similar effect was obtained”. The “induction of apoptosis of osteoblastic cells” value in assay [2] is listed as “induced apoptosis”.
